The text below walks through data of PMC3375280 (PLoS ONE, 2012).

Where a chain is given by its changes, count along the chain named.

The target of test [1] is T1, AT1 C76A/C289A mutant receptor (Rattus norvegicus, UniProt P25095, C289A/C76A).
T1 construct: expressed in transfected cells; host or cells: COS1
T1 sequence (P25095 1-359 C76A/C289A): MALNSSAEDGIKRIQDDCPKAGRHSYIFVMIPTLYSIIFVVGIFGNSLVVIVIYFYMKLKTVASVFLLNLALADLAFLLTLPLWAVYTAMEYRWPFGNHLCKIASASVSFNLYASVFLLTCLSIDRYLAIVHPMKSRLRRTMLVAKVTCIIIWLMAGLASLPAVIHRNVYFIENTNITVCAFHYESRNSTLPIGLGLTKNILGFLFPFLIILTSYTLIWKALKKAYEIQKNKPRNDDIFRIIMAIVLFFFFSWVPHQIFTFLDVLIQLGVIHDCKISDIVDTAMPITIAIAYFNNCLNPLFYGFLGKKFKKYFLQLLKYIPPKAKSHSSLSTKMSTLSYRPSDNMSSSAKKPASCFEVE
The test can be described thus: competition binding, C76A/C289A mutant. The following applies: for Kd ratio relative to WT (in parentheses): C76A/C289A / WT; for Kd: C76A/C289A, COS1 membranes, read-out: Binding affinity (Kd). How it is done:
The Kd and Bmax values of receptor binding were determined by ^125I-[Sar^1, Ile^8] […] Membranes expressing the WT or mutant AT1 receptors were incubated with 100 pM ^125I-[Sar^1, Ile^8] […] The binding reaction was terminated by filtering the incubation mixture through Whatman GF/C glass filters, and the residues were extensively washed further with binding buffer. The bound ligand fraction was determined from the counts per minute (cpm) remaining on the membrane. Binding kinetics values were determined as previously described.

Test [2] concerns the target T2, AT1 C76A/V116C/C289A mutant receptor (Rattus norvegicus, UniProt P25095, C289A/C76A/V116C).
T2 construct: expressed in transfected cells; host or cells: COS1 cells (membranes)
T2 sequence (P25095 1-359 C76A/V116C/C289A): T1 sequence (P25095 1-359 C76A/C289A) with V116C
The experiment in a line: substituted cysteine accessibility mapping (SCAM), C76A/V116C/C289A. The test is classed as binding. Further details: key: Less and More indicate that the AT1 receptor is less or more accessible to the ligand pocket, respectively; Less and More indicate that the AT1 receptor is less or more accessible to the ligand pocket, respectively; No change. Particulars: 1 µM ARB, […] MTSEA+, COS1 membranes. From the text: (§1) As we reported previously, the percentage (%) inhibition of ^125I-[Sar^1, Ile^8] AngII binding by methanethiosulphonate ethyl-ammonium (MTSEA^+) reagent was approximately 30% on AT1 receptor, since Cys^76 in TM2 was accessible to water within the ligand pocket. In addition, mechanical stretching increased the accessibility of Cys^289 by inducing a change in the conformation of TM7 [22]. To differentiate between single and multiple movements of one or more native cysteines, we created TM3 residues that were substituted with cysteine one at a time from […] to Phe^117 using the C76A/C289A mutant genetic background and evaluated each triple mutant for MTSEA sensitivity.
(§2) Figure 3 Changes in cysteine accessibility in COS1 cells expressing C76A/C289A mutant receptors in which the transmenbrane 3 residues from Ala^106 to Phe^117, except for position 113, were successively replaced by cysteine. 1 µM of ARBs, n=4–9, *p<0.05 vs. no treatment. #p<0.05 vs. C76A/C289A.
The SCAM method has been used to probe relative changes in the conformation of constitutively active AT1 receptor [20]–[22] and other GPCRs, [30] by validating the presence of Cys residues within the ligand pocket. […]

The target of test [3] is T3, AT1 C76A/F117C/C289A mutant receptor (Rattus norvegicus, UniProt P25095, C289A/C76A/F117C).
T3 construct: expressed in transfected cells; host or cells: COS1 cells (membranes)
T3 sequence (P25095 1-359 C76A/F117C/C289A): T1 sequence (P25095 1-359 C76A/C289A) with F117C
The test can be described thus: substituted cysteine accessibility mapping (SCAM), C76A/F117C/C289A. The test is classed as binding. Further details: key: Less and More indicate that the AT1 receptor is less or more accessible to the ligand pocket, respectively; Less and More indicate that the AT1 receptor is less or more accessible to the ligand pocket, respectively; No change. The following applies: 1 µM ARB, […] MTSEA+, COS1 membranes.
Source text: as §1, §2
The SCAM method has been used to probe relative changes in the conformation of constitutively active AT1 receptor [20]–[22] and other GPCRs, [30] by validating the presence of Cys residues within the ligand pocket. We used a highly reactive, sulfhydryl-specific reaction with methanethiosulfonyl ethyl-ammonium (MTSEA^+), which reacts a billion times faster with water-exposed and ionized Cys than with lipid-exposed and un-ionized Cys. In this reaction, a positively charged sulfonylmethylammonium group is added to a water-exposed Cys. Aliquots of cell membranes are incubated with or without ARBs for 20 min in phosphate buffer at room temperature. The membranes are then diluted with same buffer and centrifuged. After washout the cell membranes, the membranes are incubated with 2.5 mM MTSEA^+ at room temperature for 2 min in HEPES buffer (pH7.4). The Membranes are then diluted with same buffer to stop the reaction and centrifuged. One hundred µl aliquots were used to assay for ^125I-[Sar^1,Ile^8]Ang II binding. […]

In test [4] the target is T4, wild-type (WT) AT1 receptor (Rattus norvegicus, UniProt P25095).
T4 sequence (P25095 1-359): T1 sequence (P25095 1-359 C76A/C289A) with A76C, A289C
On the set-up: expressed in transfected cells; host or cells: COS1 cells. The following applies: previously reported; cited from earlier work.

One may read the Kd as the constant that tells how readily two partners part at equilibrium.

Take `CCCc1nc(C(C)(C)O)c(C(N)=O)n1Cc1ccc(-c2cc(Cc3ccc(O)cc3)ccc2-c2nnn[nH]2)cc1` [R794847]: in test [1], the “Kd ratio relative to WT (in parentheses)” value stood at 1.5 fold and the dissociation constant Kd was found to be 73 ± 20 nM.

Regarding `CCCc1nc(C(C)(C)O)c(C(=O)O)n1Cc1ccc(-c2ccccc2-c2nnn[nH]2)cc1` [Olmesartan, olmesartan, reference compound], in test [1], the “Kd ratio relative to WT (in parentheses)” value is given as 2.5 fold and the dissociation constant Kd turned out to be 5.7 ± 1.6 nM. For the same compound, in test [2], the “Cysteine accessibility at Val116 compared to ligand (-)” value is reported as “No change”. For the same compound, in test [3], the “Cysteine accessibility at Phe117 compared to ligand (-)” value is “More”. In addition, the “Cysteine accessibility at Phe117 compared to ligand (-)” value in test [3] (listed as olmesartan) was “greater accessibility”. Moreover, in test [4], the “Pharmacological behaviour toward IP production” value was “inverse agonism”.

Turning to `CCCc1nc(C(C)(C)O)c(C(N)=O)n1Cc1ccc(-c2ccccc2-c2nnn[nH]2)cc1` [R239470], in test [1], the “Kd ratio relative to WT (in parentheses)” value amounted to 3.0 fold and the Kd was found to be 2.4 ± 0.5 nM. Further, the “Cysteine accessibility at Val116 compared to ligand (-)” value in test [2] is recorded as “No change”. The “Cysteine accessibility at Phe117 compared to ligand (-)” value in test [3] was “No change”. The “Pharmacological behaviour toward IP production” value in test [4] is “neutral antagonist”.
